Experiments:
[1] = molecular target: cAMP and cAMP-inhibited cGMP 3',5'-cyclic phosphodiesterase 10A (Homo sapiens, UniProt Q9Y233); experiment: Inhibition of human recombinant PDE10A-catalyzed cAMP hydrolysis
[2] = molecular target: cGMP-dependent 3',5'-cyclic phosphodiesterase (Homo sapiens, UniProt O00408); experiment: Inhibition of PDE2
Phosphodiesterase 3 = Phosphodiesterase 3 (Homo sapiens, UniProt Q14432+Q13370); experiment: Inhibition of PDE3; assay type: protein assay
Phosphodiesterase 4 = Phosphodiesterase 4 (Homo sapiens, UniProt P27815+Q08499+Q07343+Q08493); experiment: Inhibition of PDE4; assay type: protein assay
[3] = molecular target: cGMP-specific 3',5'-cyclic phosphodiesterase (Canis lupus familiaris, UniProt O77746); experiment: Inhibition of PDE5; parameters: species or system Homo sapiens
Phosphodiesterase 6 = experiment: Inhibition of PDE6; assay type: protein assay, Homo sapiens
Rattus norvegicus [4] = experiment: Antipsychotic activity in po dosed rat assessed as reduction of MK801-induced hyperactivity; assay type: functional; parameters: Activity: scale not given: the % may be the effect or the level left; conditions: for minimal effective dose: Rattus norvegicus, po, read-out: MED
Rattus norvegicus [5] = experiment: Antipsychotic activity in po dosed rat assessed as reduction of MK801-induced stereotyped sniffing; assay type: functional; parameters: Activity: scale not given: the % may be the effect or the level left; conditions: for minimal effective dose: Rattus norvegicus, po, read-out: MED
Homo sapiens [6] = species: Homo sapiens; experiment: Selectivity ratio of IC50 PDE2 to IC50 for human recombinant PDE10A
Homo sapiens [7] = species: Homo sapiens; experiment: Selectivity ratio of IC50 PDE3 to IC50 for human recombinant PDE10A
Homo sapiens [8] = species: Homo sapiens; experiment: Selectivity ratio of IC50 PDE4 to IC50 for human recombinant PDE10A
Homo sapiens [9] = species: Homo sapiens; experiment: Selectivity ratio of IC50 PDE5 to IC50 for human recombinant PDE10A
Homo sapiens [10] = species: Homo sapiens; experiment: Selectivity ratio of IC50 PDE6 to IC50 for human recombinant PDE10A
Homo sapiens [11] = species: Homo sapiens; experiment: Selectivity ratio of IC50 PDE1 to IC50 for human recombinant PDE10A
Homo sapiens [12] = species: Homo sapiens; experiment: Selectivity ratio of IC50 PDE7 to IC50 for human recombinant PDE10A
Homo sapiens [13] = species: Homo sapiens; experiment: Selectivity ratio of IC50 PDE8 to IC50 for human recombinant PDE10A
Homo sapiens [14] = species: Homo sapiens; experiment: Selectivity ratio of IC50 PDE9 to IC50 for human recombinant PDE10A
Homo sapiens [15] = species: Homo sapiens; experiment: Selectivity ratio of IC50 PDE11 to IC50 for human recombinant PDE10A
[16] = Oral bioavailability in rat at 10 mg/kg; assay type: ADME, organism-based; conditions: in vivo
[17] = Elimination half life in rat at 2 mg/kg, iv and 10 mg/kg, po; assay type: ADME, organism-based; conditions: in vivo, read-out: beta t1/2 (converted)
[18] = Clearance in rat at 2 mg/kg, iv and 10 mg/kg, po; assay type: ADME, organism-based; conditions: in vivo
[19] = Volume of distribution at steady state in rat at 2 mg/kg, iv and 10 mg/kg, po; assay type: ADME, organism-based; conditions: in vivo, read-out: Vdss
[20] = AUC in rat brain at 2 mg/kg, iv and 10 mg/kg, po; assay type: ADME, organism-based
[21] = AUC in rat plasma at 2 mg/kg, iv and 10 mg/kg, po; assay type: ADME, organism-based

Sequence of cGMP-dependent 3',5'-cyclic phosphodiesterase (O00408 whole entry): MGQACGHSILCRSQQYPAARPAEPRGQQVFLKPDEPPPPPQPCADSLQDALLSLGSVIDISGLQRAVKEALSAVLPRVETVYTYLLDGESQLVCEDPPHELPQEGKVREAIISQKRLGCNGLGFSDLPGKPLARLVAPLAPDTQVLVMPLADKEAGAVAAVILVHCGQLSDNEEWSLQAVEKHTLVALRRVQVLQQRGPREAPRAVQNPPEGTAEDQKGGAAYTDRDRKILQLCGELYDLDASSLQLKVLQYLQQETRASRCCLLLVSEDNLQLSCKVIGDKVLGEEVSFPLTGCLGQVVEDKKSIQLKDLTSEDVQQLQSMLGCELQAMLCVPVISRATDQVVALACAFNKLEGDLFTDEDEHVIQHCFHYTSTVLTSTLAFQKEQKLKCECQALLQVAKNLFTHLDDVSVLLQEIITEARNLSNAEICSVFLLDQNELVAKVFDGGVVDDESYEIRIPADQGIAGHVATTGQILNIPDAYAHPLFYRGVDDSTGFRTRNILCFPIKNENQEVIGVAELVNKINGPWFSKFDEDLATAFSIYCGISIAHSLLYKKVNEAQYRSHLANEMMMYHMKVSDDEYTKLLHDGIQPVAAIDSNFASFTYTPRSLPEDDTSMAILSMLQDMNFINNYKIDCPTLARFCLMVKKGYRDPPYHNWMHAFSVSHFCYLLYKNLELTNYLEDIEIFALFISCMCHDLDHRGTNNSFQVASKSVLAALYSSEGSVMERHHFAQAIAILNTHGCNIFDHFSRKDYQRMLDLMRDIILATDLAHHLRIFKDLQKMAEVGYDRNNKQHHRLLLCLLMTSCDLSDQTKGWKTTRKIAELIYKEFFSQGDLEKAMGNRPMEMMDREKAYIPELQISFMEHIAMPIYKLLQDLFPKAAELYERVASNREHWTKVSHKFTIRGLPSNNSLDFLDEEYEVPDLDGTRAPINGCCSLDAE
Sequence of cAMP and cAMP-inhibited cGMP 3',5'-cyclic phosphodiesterase 10A (Q9Y233 whole entry): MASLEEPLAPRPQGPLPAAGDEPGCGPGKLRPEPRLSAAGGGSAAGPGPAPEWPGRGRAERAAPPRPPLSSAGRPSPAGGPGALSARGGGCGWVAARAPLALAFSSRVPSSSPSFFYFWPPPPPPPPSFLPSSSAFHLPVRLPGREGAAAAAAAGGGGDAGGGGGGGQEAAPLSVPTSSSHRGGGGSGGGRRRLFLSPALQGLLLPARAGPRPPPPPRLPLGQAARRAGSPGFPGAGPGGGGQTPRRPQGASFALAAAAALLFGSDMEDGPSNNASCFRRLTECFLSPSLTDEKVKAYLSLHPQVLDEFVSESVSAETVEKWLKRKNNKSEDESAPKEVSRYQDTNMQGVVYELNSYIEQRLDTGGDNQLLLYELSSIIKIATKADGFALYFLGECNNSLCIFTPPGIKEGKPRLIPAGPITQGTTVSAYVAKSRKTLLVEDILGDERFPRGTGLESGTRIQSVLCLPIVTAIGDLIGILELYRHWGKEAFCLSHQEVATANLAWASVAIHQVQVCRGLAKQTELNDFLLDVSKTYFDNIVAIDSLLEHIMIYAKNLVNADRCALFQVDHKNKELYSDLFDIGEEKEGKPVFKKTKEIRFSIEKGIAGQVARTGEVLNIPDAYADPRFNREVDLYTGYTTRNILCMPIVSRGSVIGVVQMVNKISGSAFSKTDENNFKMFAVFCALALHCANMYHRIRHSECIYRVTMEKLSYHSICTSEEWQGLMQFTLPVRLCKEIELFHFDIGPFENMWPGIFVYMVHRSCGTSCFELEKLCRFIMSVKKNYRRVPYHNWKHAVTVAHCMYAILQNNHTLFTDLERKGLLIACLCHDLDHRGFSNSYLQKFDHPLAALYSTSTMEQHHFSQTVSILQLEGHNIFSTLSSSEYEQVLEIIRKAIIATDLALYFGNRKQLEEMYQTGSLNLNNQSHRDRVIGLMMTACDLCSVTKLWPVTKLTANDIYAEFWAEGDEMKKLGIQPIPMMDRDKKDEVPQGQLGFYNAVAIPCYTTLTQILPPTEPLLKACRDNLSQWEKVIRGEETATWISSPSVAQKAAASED

Compound	IC50 [1] [µM]	IC50 [2] [µM]	IC50 (Phosphodiesterase 3) [µM]	IC50 (Phosphodiesterase 4) [µM]	IC50 [3] [µM]	IC50 (Phosphodiesterase 6) [µM]	other results
COc1cc(C(F)(F)F)cc2c1nnc1c(C)nc(-c3cnccc3C)n12	0.00511	0.864	> 10	> 10.001	> 10	5.25	
COc1cccc(-c2nc(C)c3nnc4c(OC)cc(F)cc4n23)c1		2	> 1	> 1	> 1	> 1	
COc1ccc2nnc3c(C)nc(-c4ccc(Cl)cc4Cl)n3c2n1			> 1	> 1	> 1	> 1	
COc1ccc2nnc3c(C)nc(-c4ccc(F)cc4Cl)n3c2n1			> 1	> 1	> 1	0.462	
COc1cc(F)cc2c1nnc1c(C)nc(-c3c(C)nn(C)c3C)n12			> 10	> 10	> 10	> 5	
COc1ccc2nnc3c(C)nc(-c4cc(OC(C)C)ccc4F)n3c2n1	2.43	0.102					
COc1ccnc2c1nnc1c(C)nc(-c3cccnc3C)n12	0.0124	0.974	> 10	6.96	> 5	> 5	Ratio IC50 (Homo sapiens [6]): > 100; Ratio IC50 (Homo sapiens [7]): > 100; Ratio IC50 (Homo sapiens [8]): > 100; Ratio IC50 (Homo sapiens [9]): > 100; Ratio IC50 (Homo sapiens [10]): > 100; Ratio IC50 (Homo sapiens [11]): > 500; Ratio IC50 (Homo sapiens [12]): > 500; Ratio IC50 (Homo sapiens [13]): > 500; Ratio IC50 (Homo sapiens [14]): > 500; Ratio IC50 (Homo sapiens [15]): > 500
COc1cc(F)c2nnc3c(C)nc(-c4ccccc4OC)n3c2c1			> 1	> 1	> 1	> 1	Ratio IC50 (Homo sapiens [6]): > 400
COc1cc(OC)c2nnc3c(C)nc(-c4ccccc4C(F)(F)F)n3c2c1	0.00335	0.522	> 1	> 1	> 1	> 1	
COc1cc(F)cc2c1nnc1c(C)nc(-c3cnccc3C)n12			> 10	> 10	> 10	> 10	
COc1ccc2nnc3c(C)nc(-c4ccc(F)cc4C)n3c2n1	0.0459	0.0132	7.26	> 10	34.1	1.15	
COc1cc(F)cc2c1nnc1c(C)nc(-c3cccnc3C)n12	0.00784	1.27	> 10	> 10	> 5	2.83	
COc1ccnc2c1nnc1c(C)nc(-c3ccncc3C)n12			> 10	3.68	> 10	> 10	Ratio IC50 (Homo sapiens [6]): > 100; Ratio IC50 (Homo sapiens [7]): > 100; Ratio IC50 (Homo sapiens [8]): > 100; Ratio IC50 (Homo sapiens [9]): > 100; Ratio IC50 (Homo sapiens [10]): > 100; Activity (Rattus norvegicus [4]): 55.4%; minimal effective dose (Rattus norvegicus [4]): 2.5 mg/kg; Activity (Rattus norvegicus [5]): 34.1%; minimal effective dose (Rattus norvegicus [5]): 2.5 mg/kg
COc1cc(F)cc2c1nnc1c(C)nc(-c3cccc(F)c3C)n12			> 1	> 1	> 1	> 1	
COc1ccccc1-c1nc(C)c2nnc3c(OC)cc(F)cc3n12			> 10	> 10	> 10	> 10	
COc1cc(F)cc2c1nnc1c(C)nc(-c3ccncc3C)n12	0.0072	1.22	> 10	> 10	> 10	> 10	

Further lines, with some results ahead:

IC50 [1] [µM]	IC50 [2] [µM]	IC50 (Phosphodiesterase 3) [µM]	IC50 (Phosphodiesterase 4) [µM]	IC50 [3] [µM]	IC50 (Phosphodiesterase 6) [µM]	Compound	other results
	0.0303	> 5	1.91	0.436	0.07315	COc1cc(OC)c2nnc3c(C)nc(-c4ccccc4Cl)n3c2c1	Activity (Rattus norvegicus [4]): 70.3%; minimal effective dose (Rattus norvegicus [4]): 0.5 mg/kg; Activity (Rattus norvegicus [5]): 55.7%; minimal effective dose (Rattus norvegicus [5]): 0.5 mg/kg
0.0131	0.0043	1.24	> 10	1.68	0.435	COc1ccc2nnc3c(C)nc(-c4ccccc4Cl)n3c2n1	
		> 10	0.176	3.67	1.98	COc1cccc2c1nnc1c(C)nc(-c3ccccc3C)n12	Ratio IC50 (Homo sapiens [6]): 60
	0.00437	> 10	> 10	5.38	3.12	COc1cc(N2CCOCC2)cc2c1nnc1c(C)nc(-c3ccncc3C)n12	
0.00185	0.722	> 5	> 5	2.13	1.26	COc1cc(C(F)(F)F)cc2c1nnc1c(C)nc(-c3cccc(F)c3C)n12	
		> 10	7.72	3.6	3.27	COc1cc(F)cc2c1nnc1c(C)nc(-c3sccc3C)n12	
		2.25	3.67	2.78	1.23	COc1cc(F)c2nnc3c(C)nc(-c4sccc4C)n3c2c1	
		> 10	> 10	5.07	1.822	COc1cc(OC)c2nnc3c(C)nc(-c4cnccc4C)n3c2c1	bioavailability [16]: 100%; half-life [17]: 48 min; clearance [18]: 14 mL/min/kg; Vd [19]: 0.5 L/kg; AUC [20]: 3000 ng·h/mL; AUC [21]: 8790 ng·h/mL; Activity (Rattus norvegicus [4]): 79.9%; minimal effective dose (Rattus norvegicus [4]): 1 mg/kg; Activity (Rattus norvegicus [5]): 69.8%; minimal effective dose (Rattus norvegicus [5]): 1 mg/kg
0.0476		> 5	> 10	3.41	1.57	COc1ccc2nnc3c(C)nc(-c4ccccc4C)n3c2n1	
		> 10	2.68	0.603	0.276	COc1cc(N2CCOCC2)cc2c1nnc1c(C)nc(-c3ccccc3Cl)n12	
		> 10	2.46	4.76	3.88	COc1cc(F)cc2c1nnc1c(C)nc(-c3sc(C)nc3C)n12	
		> 10	> 10	4.95	1.24	COc1cc(OC)c2nnc3c(C)nc(-c4ccncc4C)n3c2c1	Ratio IC50 (Homo sapiens [6]): 300; bioavailability [16]: 100%; half-life [17]: 54 min; clearance [18]: 13 mL/min/kg; Vd [19]: 0.4 L/kg; AUC [20]: 2780 ng·h/mL; AUC [21]: 18700 ng·h/mL; Activity (Rattus norvegicus [4]): 71.7%; minimal effective dose (Rattus norvegicus [4]): 0.5 mg/kg; Activity (Rattus norvegicus [5]): 57.4%; minimal effective dose (Rattus norvegicus [5]): 0.5 mg/kg
		> 10	0.0708	3.06	1.06	COc1cccc2c1nnc1c(C)nc(-c3ccccc3Cl)n12	
0.00513	0.0959	> 10	> 10	1.11	0.349	COc1cc(OC)c2nnc3c(C)nc(-c4ccccc4C)n3c2c1	
0.007	0.944	> 10	> 10	4.02	0.909	COc1cc(OC(F)F)cc2c1nnc1c(C)nc(-c3ccncc3C)n12	
		1.82	4.82	0.702	0.734	COc1ccc(F)c(-c2nc(C)c3nnc4ccc(OC)nc4n23)c1	
		> 10	> 10	1.43	0.493	COc1cc(OC)c2nnc3c(C)nc(-c4cccnc4C)n3c2c1	bioavailability [16]: 100%; half-life [17]: 120 min; clearance [18]: 4 mL/min/kg; Vd [19]: 0.4 L/kg; AUC [20]: 6590 ng·h/mL; AUC [21]: 21300 ng·h/mL; Activity (Rattus norvegicus [4]): 90.2%; minimal effective dose (Rattus norvegicus [4]): 0.25 mg/kg; Activity (Rattus norvegicus [5]): 71.3%; minimal effective dose (Rattus norvegicus [5]): 0.25 mg/kg
0.0531	0.00206	0.75	4.41	1.15	0.829	COc1ccc2nnc3c(C)nc(-c4cc(Cl)ccc4Cl)n3c2n1	
		> 10	2.92	0.651	0.693	COc1cc(N2CCOCC2)cc2c1nnc1c(C)nc(-c3ccccc3C)n12	

— ChEMBL document CHEMBL2069169, “Novel triazines as potent and selective phosphodiesterase 10A inhibitors” (Bioorg Med Chem Lett, 2012)
